The values that follow come from patent US20240319207A1, “METHOD FOR IDENTIFYING T-CELL EPITOPE SEQUENCE, AND APPLICATION OF SAME” (priority 2021, published 2024).

Assay [1] has as its system T cells. As to conditions: peptide sequence including the TREM sequence (from TCRβ repertoire, Table 12 no) activates T cells to induce interferon-γ; cited from earlier work.
Assay [2] deals with human peripheral blood monocyte cells, first type (HLA-DRB1*07:01, 15:02). Nature of the assay: ELISPOT assay for interleukin-4, cell 1. The format is cell-based. As to conditions: 4×10^5 cells per well, peptide 10 μg/ml, 48 hours, after 13 days culture with peptide 1 μg/ml and IL-2. The protocol:
(§1) There was performed an assay for specifying a peptide that could actually be an antigen from the peptide candidate list obtained up to Example 8. In this example, it was confirmed whether the sequence of the peptide obtained as described above could function as a T cell epitope. Of the 12 highly versatile epitope candidates obtained above, 8 epitope candidates were subjected to an assay using peptides.
(§2) Human peripheral blood monocyte cells carrying HLA types and showing high binding affinity with 8 peptide sequences in Example 8 were used. Specifically, human peripheral blood monocyte cells carrying the following 2 types of HLA types were purchased from Lonza K.K. (Tokyo, Japan) and used. The HLA types of the first type of human peripheral blood monocyte cells used were HLA-DPA1*01:03, 02:02, HLA-DPB1*04:01, 05:01, HLA-DQA1*01:02, 02:01, HLA-DQB1*03:03, 05:02, and HLA-DRB1*07:01, 15:02. The HLA types of the second type of human peripheral blood monocyte cells were HLA-DPA1*01:03, HLA-DPB1*04:01, 04:02, HLA-DOA1*01:03, 05:05, HLA-DOB1*03:01, 06:03, and HLA-DRB1*13:01,14:06.
(§3) Cells were cultured in the following manner. […]
(§4) ELISPOT assays for interferon-γ and interleukin-4 were conducted. […] The number of spots of the color-developed plate was measured by a contract analysis service of M&S TechnoSystems, Inc. (Osaka, Japan).

Assay [3] deals with human peripheral blood monocyte cells, second type (HLA-DRB1*13:01, 14:06). Kind of assay: ELISPOT assay for interleukin-4, cell 2. The format is cell-based. The settings on record: 4×10^5 cells per well, peptide 10 μg/ml, 48 hours, after 13 days culture with peptide 1 μg/ml and IL-2. How it is done: as §1, §2, §3, §4

As to “15 (LITMDWTWRFLFVVA; listed as Homo sapiens) [compound 15]”, in assay [1], the IFN-g release entry is “Positive”. In the case of “7 (QDEKGVTQNGRLITA; listed as Homo sapiens) [compound 7]”, in assay [2], the “ELISPOT IL-4 cell 1 (number of spots)” value is recorded as 6. Moreover, the “ELISPOT IL-4 cell 2 (number of spots)” value in assay [3] is given as 12.
